# Measured values: patent publication US11578077B2, “Spiro-oxazolones” (Hoffmann-La Roche Inc., priority 2013, dated 2023)
# Molecular target: human V1a receptor (Homo sapiens (Human), UniProt P37288)
# Assay: human V1a receptor binding studies (3H-Vasopressin, SPA beads)
# Conditions: membranes of HEK293 cells transiently transfected with human V1a receptor, Ki by Cheng-Prusoff
# Method: The human V1a receptor was cloned by RT-PCR from total human liver RNA. The coding sequence was subcloned in an expression vector after sequencing to confirm the identity of the amplified sequence. […] Cell membranes were prepared from HEK293 cells transiently transfected with the expression vector and grown in 20 liter fermenters with the following protocol.
# 50 g of cells are re-suspended in 30 ml freshly prepared ice cold Lysis buffer ([…] HEPES. 1 mM EDTA, 10 mM MgCl2 adjusted to pH=7.4+complete cocktail of protease inhibitor (Roche Diagnostics)). Homogenized with Polytron for 1 min and sonicated on ice for 2×2 minutes at 80% intensity (Vibracell sonicator). The preparation is centrifuged 20 min at 500 g at 4° C., the pellet is discarded and the supernatant centrifuged 1 hour at 43'000 g at 4° C. (19'000 rpm). The pellet is re-suspended in 12.5 ml Lysis buffer+12.5 ml Sucrose 20% and homogenized using a Polytron for 1-2 min. The protein concentration is determined by the Bradford method and aliquots are stored at −80° C. until use. For binding studies 60 mg Yttrium silicate SPA beads (Amersham) are mixed with an aliquot of membrane in binding buffer (50 mM Tris, 120 mM NaCl, 5 mM KCl, 2 mM CaCl2, 10 mM MgCl) for 15 minutes with mixing. 50 μl of bead/membrane mixture is then added to each well of a 96 well plate, followed by […] of 4 nM 3H-Vasopressin (American Radiolabeled Chemicals). For total binding measurement 100 μl of binding buffer are added to the respective wells, for non-specific binding 100 μl of […] cold vasopressin and for compound testing 100 μl of a serial dilution of each compound in 2% DMSO. The plate is incubated 1 h at room temperature, centrifuged 1 min at 1000 g and counted on a Packard Top-Count. Non-specific binding counts are subtracted from each well and data is normalized to the maximum specific binding set at 100%. To calculate an IC 50 the curve is fitted using a non-linear regression model (XLfit) and the Ki is calculated using the Cheng-Prussoff equation.
# human V1a receptor, sequence (P37288 whole entry): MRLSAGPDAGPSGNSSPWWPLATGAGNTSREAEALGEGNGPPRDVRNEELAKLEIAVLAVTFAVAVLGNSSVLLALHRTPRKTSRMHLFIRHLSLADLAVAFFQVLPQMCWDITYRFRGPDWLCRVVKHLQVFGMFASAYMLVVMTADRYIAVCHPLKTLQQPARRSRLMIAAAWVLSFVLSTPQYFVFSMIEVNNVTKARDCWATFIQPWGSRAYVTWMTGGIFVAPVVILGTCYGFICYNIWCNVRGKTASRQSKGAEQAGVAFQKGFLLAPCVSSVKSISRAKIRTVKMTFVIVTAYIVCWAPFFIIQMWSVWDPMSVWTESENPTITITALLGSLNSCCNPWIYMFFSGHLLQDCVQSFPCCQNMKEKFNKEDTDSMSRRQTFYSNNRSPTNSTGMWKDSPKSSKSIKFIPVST
row,SMILES,pKi hV1a
1,"Cc1cc2c(cc1C)CC1(C2)OC(N2CCC3(CC2)OCc2ccccc23)=NC1=O [Example 25, 5,6-dimethyl-2′-(1′H,3H-spiro[2-benzofuran-1,4′-piperidin]-1′-yl)-1,3-dihydro-4′H-spiro[indene-2,5′-[1,3]oxazol]-4′-one]",7.1
2,"Cc1cc2c(cc1C)CC1(C2)OC(N2CCC3(CC2)OC(=O)c2ccccc23)=NC1=O [Example 26, 1′-(5,6-dimethyl-4′-oxo-1,3-dihydro-4′H-spiro[indene-2,5′-[1,3]oxazol)-2′-yl)-3H-spiro[2-benzofuran-1,4′-piperidin]-3-one]",6.4
3,"COc1ccc2c(c1)CC1(C2)OC(N2CCC3(CC2)OC(=O)c2ccccc23)=NC1=O (stereo not drawn) [Example 27, 1′-(5-methoxy-4′-oxo-1,3-dihydro-4′H-spiro[indene-2,5′-[1,3]oxazol]-2′-yl)-3H-spiro[2-benzofuran-1,4′-piperidin]-3-one]",7.7
4,"C[Si](C)(C)c1ccc2c(c1)CC1(C2)OC(N2CCC3(CC2)OCc2ccccc23)=NC1=O (stereo not drawn) [Example 29, 2′-(1′H,3H-spiro[2-benzofuran-1,4′-piperidin]-1′-yl)-5-(trimethylsilyl)-1,3-dihydro-4′H-spiro[indene-2,5′-[1,3]oxazol]-4′-one]",6.2
5,"O=C1N=C(N2CCC3(CC2)OCc2ccccc23)OC12Cc1ccc(F)cc1C2 (stereo not drawn) [Example 30, 5-fluoro-2′-(1′H,3H-spiro[2-benzofuran-1,4′-piperidin]-1′-yl)-1,3-dihydro-4′H-spiro[indene-2,5′-[1,3]oxazol]-4′-one]",9.0
6,"COc1cc2c(cc1OC)CC1(C2)OC(N2CCC3(CC2)OC(=O)c2ccccc23)=NC1=O [Example 32, 1′-(5,6-dimethoxy-4′-oxo-1,3-dihydro-4′H-spiro[indene-2,5′-[1,3]oxazol)-2′-yl)-3H-spiro[2-benzofuran-1,4′-piperidin]-3-one]",6.4
7,"O=C1OC2(CCN(C3=NC(=O)C4(Cc5cc(O)c(O)cc5C4)O3)CC2)c2ccccc21 [Example 33, 1′-(5,6-dihydroxy-4′-oxo-1,3-dihydro-4′H-spiro[indene-2,5′-[1,3]oxazol]-2′-yl)-3H-spiro[2-benzofuran-1,4′-piperidin]-3-one]",6.7
8,"O=C1N=C(N2CCC3(CC2)OCc2ccccc23)OC12Cc1cc(F)c(F)cc1C2 [Example 34, 5,6-difluoro-2′-(1′H,3H-spiro[2-benzofuran-1,4′-piperidin]-1′-yl)-1,3-dihydro-4′H-spiro[indene-2,5′-[1,3]oxazol]-4′-one]",9.4
9,"O=C1OC2(CCN(C3=NC(=O)C4(Cc5cc(F)c(F)cc5C4)O3)CC2)c2ccccc21 [Example 35, 1′-(5,6-difluoro-4′-oxo-1,3-dihydro-4′H-spiro[indene-2,5′-[1,3]oxazol]-2′-yl)-3H-spiro[2-benzofuran-1,4′-piperidin]-3-one]",8.9
10,"Cc1ccc2c(n1)C1(CCN(C3=NC(=O)C4(Cc5ccccc5C4)O3)CC1)OC2 [Example 42, 2′-(2-methyl-1′H,5H-spiro[furo[3,4-b]pyridine-7,4′-piperidin]-1′-yl)-1,3-dihydro-4′H-spiro[indene-2,5′-[1,3]oxazol]-4′-one]",9.1
11,"Cc1ccc2c(n1)C1(CCN(C3=NC(=O)C4(Cc5ccccc5C4)O3)CC1)OC2=O [Example 43, 2-methyl-1′-(4′-oxo-1,3-dihydro-4′H-spiro[indene-2,5′-[1,3]oxazol]-2′-yl)-5H-spiro[furo[3,4-b]pyridine-7,4′-piperidin]-5-one]",8.3
12,"Cc1cnc2c(c1)COC21CCN(C2=NC(=O)C3(Cc4ccccc4C3)O2)CC1 [Example 44, 2′-(3-methyl-1′H,5H-spiro[furo[3,4-b]pyridine-7,4′-piperidin]-1′-yl)-1,3-dihydro-4′H-spiro[indene-2,5′-[1,3]oxazol]-4′-one]",8.7
13,"Cc1cnc2c(c1)C(=O)OC21CCN(C2=NC(=O)C3(Cc4ccccc4C3)O2)CC1 [Example 45, 3-methyl-1′-(4′-oxo-1,3-dihydro-4′H-spiro[indene-2,5′-[1,3]oxazol]-2′-yl)-5H-spiro[furo[3,4-b]pyridine-7,4′-piperidin]-5-one]",7.6
14,"Cc1ccc2c(n1)COC21CCN(C2=NC(=O)C3(Cc4ccccc4C3)O2)CC1 [Example 48, 2′-(2-methyl-1′H,7H-spiro[furo[3,4-b]pyridine-5,4′-piperidin]-1′-yl)-1,3-dihydro-4′H-spiro[indene-2,5′-[1,3]oxazol]-4′-one]",7.9
15,"Cc1ccc2c(n1)C(=O)OC21CCN(C2=NC(=O)C3(Cc4ccccc4C3)O2)CC1 [Example 49, 2-methyl-1′-(4′-oxo-1,3-dihydro-4′H-spiro[indene-2,5′-[1,3]oxazol]-2′-yl)-7H-spiro[furo[3,4-b]pyridine-5,4′-piperidin]-7-one]",7.0
16,"Cc1cnc2c(c1)C1(CCN(C3=NC(=O)C4(Cc5ccccc5C4)O3)CC1)OC2=O [Example 53, 3-methyl-1′-(4′-oxo-1,3-dihydro-4′H-spiro[indene-2,5′-[1,3]oxazol]-2′-yl)-7H-spiro[furo[3,4-b]pyridine-5,4′-piperidin]-7-one]",7.4
17,"O=C1OC2(CCN(C3=NC(=O)C4(Cc5ccccc5C4)O3)CC2)c2cnc(Cl)cc21 [Example 54, 6-chloro-1′-(4′-oxo-1,3-dihydro-4′H-spiro[indene-2,5′-[1,3]oxazol]-2′-yl)-1H-spiro[furo[3,4-c]pyridine-3,4′-piperidin]-1-one]",7.4
18,"O=C1OC2(CCN(C3=NC(=O)C4(Cc5ccccc5C4)O3)CC2)c2c1ccnc2Cl [Example 55, 4-chloro-1′-(4-oxo-1,3-dihydro-4′H-spiro[indene-2,5′-[1,3]oxazol]-2′-yl)-1H-spiro[furo[3,4-c]pyridine-3,4′-piperidin]-1-one]",6.5
19,"O=C1N=C(N2CCC3(CC2)OCc2ccccc23)OC12Cc1cccnc1C2 (stereo not drawn) [Example 56, 2′-(1′H,3H-spiro[2-benzofuran-1,4′-piperidin]-1′-yl)-5,7-dihydro-4′H-spiro[cyclopenta[b]pyridine-6,5′-[1,3]oxazol]-4′-one]",8.2

# The remaining lines, values ahead:
row,pKi hV1a,SMILES
1,8.4,"O=C1OC2(CCN(C3=NC(=O)C4(Cc5ccc(O)cc5C4)O3)CC2)c2ccccc21 (stereo not drawn) [Example 28, 1′-(5-hydroxy-4′-oxo-1,3-dihydro-4′H-spiro[indene-2,5′-[1,3]oxazol]-2′-yl)-3H-spiro[2-benzofuran-1,4′-piperidin]-3-one]"
2,8.6,"O=C1N=C(N2CCC3(CC2)OCc2cccnc23)OC12Cc1ccccc1C2 [Example 36, 2′-(1′H,5H-spiro[furo[3,4-b]pyridine-7,4′-piperidin]-1′-yl)-1,3-dihydro-4′H-spiro[indene-2,5′-[1,3]oxazol]-4′-one]"
3,8.0,"O=C1N=C(N2CCC3(CC2)OCc2ncccc23)OC12Cc1ccccc1C2 [Example 37, 2′-(1′H,7H-spiro[furo[3,4-b]pyridine-5,4′-piperidin]-1′-yl)-1,3-dihydro-4′H-spiro[indene-2,5′-[1,3]oxazol]-4′-one]"
4,9.2,"CC1(C)OC2(CCN(C3=NC(=O)C4(Cc5ccccc5C4)O3)CC2)c2ncccc21 [Example 38, 2′-(5,5-dimethyl-1′H,5H-spiro[furo[3,4-b]pyridine-7,4′-piperidin]-1′-yl)-1,3-dihydro-4′H-spiro[indene-2,5′-[1,3]oxazol]-4′-one]"
5,9.1,"CC1(C)OC2(CCN(C3=NC(=O)C4(Cc5ccccc5C4)O3)CC2)c2cccnc21 [Example 39, 2′-(7,7-dimethyl-1′H,7H-spiro[furo[3,4-b]pyridine-5,4′-piperidin]-1′-yl)-1,3-dihydro-4′H-spiro[indene-2,5′-[1,3]oxazol]-4′-one]"
6,8.3,"COc1ccc2c(c1)CC1(C2)OC(N2CCC3(CC2)OC(C)(C)c2ncccc23)=NC1=O (stereo not drawn) [Example 40, 2′-(7,7-dimethyl-1′H,7H-spiro[furo[3,4-b]pyridine-5,4′-piperidin]-1′-yl)-5-methoxy-1,3-dihydro-4′H-spiro[indene-2,5′-[1,3]oxazol]-4′-one]"
7,8.9,"CC1(C)OC2(CCN(C3=NC(=O)C4(Cc5ccc(O)cc5C4)O3)CC2)c2cccnc21 (stereo not drawn) [Example 41, 2′-(7,7-dimethyl-1′H,7H-spiro[furo[3,4-b]pyridine-5,4′-piperidin]-1′-yl)-5-hydroxy-1,3-dihydro-4′H-spiro[indene-2,5′-[1,3]oxazol]-4′-one]"
8,8.3,"Cc1cnc2c(c1)C1(CCN(C3=NC(=O)C4(Cc5ccccc5C4)O3)CC1)OC2 [Example 52, 2′-(3-methyl-1′H,7H-spiro[furo[3,4-b]pyridine-5,4′-piperidin]-1′-yl)-1,3-dihydro-4′H-spiro[indene-2,5′-[1,3]oxazol]-4′-one]"
